# According to PubChem BioAssay (NCI):
#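 These data come from cells grown in 96-well plates and exposed to compound for 48 hours at five concentrations. GI50 = concentration required for 50% inhibition of growth. TGI is the concentration that stops growth completely.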
# Key:
# Assay in all cases: NCI anticancer screen, dose series, 48 h
# SN12C renal = tested on: SN12C renal
# SK-MEL-2 melanoma = tested on: SK-MEL-2 melanoma
# K-562 leukemia = tested on: K-562 leukemia
# HL-60(TB) leukemia = tested on: HL-60(TB) leukemia
# TK-10 renal = tested on: TK-10 renal
# BT-549 breast = tested on: BT-549 breast
# EKVX NSCLC = tested on: EKVX NSCLC
# HOP-62 NSCLC = tested on: HOP-62 NSCLC
# A549 NSCLC = tested on: A549 NSCLC
# OVCAR-5 ovarian = tested on: OVCAR-5 ovarian
Compound,TGI (SN12C renal) [µM],TGI (SK-MEL-2 melanoma) [µM],TGI (K-562 leukemia) [µM],TGI (HL-60(TB) leukemia) [µM],TGI (TK-10 renal) [µM],TGI (BT-549 breast) [µM],TGI (EKVX NSCLC) [µM],TGI (HOP-62 NSCLC) [µM],TGI (A549 NSCLC) [µM],TGI (OVCAR-5 ovarian) [µM],GI50 (SN12C renal) [nM],GI50 (SK-MEL-2 melanoma) [µM],GI50 (K-562 leukemia) [nM],GI50 (HL-60(TB) leukemia) [µM],GI50 (TK-10 renal) [µM],GI50 (BT-549 breast) [nM],GI50 (EKVX NSCLC) [nM],GI50 (HOP-62 NSCLC) [µM],GI50 (A549 NSCLC) [µM],GI50 (OVCAR-5 ovarian) [µM]
Cc1nc2sc3c(c2c(=O)[nH]1)CCCC3,> 100,> 100,> 100,> 100,> 100,> 100,> 100,> 100,> 100,> 100,,,,,,,,,,
CN(CCO)c1ccc(N2Cc3ccccc3OC3=C2C(=O)c2c(O)ccc(O)c2C3=O)cn1,0.355,0.99,> 100,0.406,0.632,0.386,1.45,1.79,4.9,0.997,165,0.299,75.9,0.114,0.248,177,284,0.508,2.08,0.325
Cc1nc(-[n+]2nc(-c3ccncc3)nn2-c2ccccc2)sc1C,> 100,> 100,> 100,> 100,99.1,41,> 100,31.9,> 100,> 100,,,,,,,,,,
N=C(N)c1ccc2nc(-c3cc(CC(=O)N[C@@H](CC(=O)O)C(=O)O)cc(-c4cc(S(N)(=O)=O)ccc4O)c3O)[nH]c2c1,> 100,> 100,> 100,> 100,> 100,> 100,> 100,> 100,> 100,> 100,> 100000,> 100,> 100000,> 100,> 100,> 100000,> 100000,> 100,> 100,> 100
c1ccc2nc3c(nc2c1)sc1ccccc13,> 100,> 100,> 100,> 100,39.3,> 100,96.2,73.6,> 100,> 100,,,,,,,,,,
C1=C\COCc2cc(ccc2OCCN2CCCC2)Nc2nccc(n2)-c2cccc(c2)COC/1,4.92,5.51,3.65,4.79,5.79,6.66,7.73,6.56,5.72,5.38,1190,2.49,933,1.28,3.33,4670,2760,2.47,2.03,1.16
CCN1CCC(O)(/C=C/c2ccc(C)cc2)C(C(=O)/C=C/c2ccc(C)cc2)C1 (stereo unspecified),20.6,15.9,6.07,5.15,14.4,13.7,26.3,25.9,21.4,23.2,,,,,,,,,,
O=C(O)CC(NC(=O)CP(=O)(O)O)C(=O)O (stereo unspecified),> 9020,> 10000,> 10000,> 10000,> 10000,> 10000,7860,3760,4250,> 10000,,,,,,,,,95.7,
C#COc1cccc(Nc2c(C#N)cnc3ncc(NC(=O)CCl)cc23)c1,> 62.5,> 62.5,> 62.5,> 62.5,> 62.5,> 62.5,> 62.5,> 62.5,> 62.5,> 62.5,16200,> 62.5,25900,41,> 62.5,> 62500,> 62500,> 62.5,46.9,> 62.5
CCCCCOc1ccc(/C=N/Nc2cc(C)nc3ccc(Br)cc23)cc1,3.27,3.91,2.83,3.78,3.42,3.43,3.11,3.37,3.69,3.28,1720,1.98,1240,1.91,1.87,1770,1630,1.73,1.9,1.83
CCN1C(=O)N(CC)C2C1NN=c1s/c(=C3\C(=O)N(CC(C)(C)C)c4ccccc43)c(=O)n12 (stereo unspecified),11.3,33.1,20.9,22.6,48.5,9.65,54.2,22.8,36.4,21.4,2210,11.3,1650,3.78,15.3,2620,5070,4.93,4.35,6.18
N#Cc1c(N/N=C/c2ccc(Cl)cc2Cl)nc(N)nc1N1CCCC1,> 100,> 100,49.5,59.4,> 100,> 100,> 100,32.4,65,99.7,51900,72.3,16700,27.7,54.3,> 100000,> 100000,15.2,29.6,24.6
